# Measurements: patent publication US8080580B2, “Dioxa-bicyclo[3.2.1]octane-2,3,4-triol derivatives” (Pfizer Inc., priority 2008, dated 2011)
# Where “and” joins values, the source holds several entries; their conditions need not be identical. Equal entries are not always repeated. Where two headings read alike, the source gives them in different places.
# Key:
# hSGLT1 = target: T1, hSGLT1 (Homo sapiens, UniProt P13866); experiment: SGLT1 functional assay: hSGLT1 IC50 (selectivity counter-screen to the SGLT2 AMG uptake assay); assay type: cell-based; details: individual runs (Run No.)
# T1 sequence (P13866 1-664): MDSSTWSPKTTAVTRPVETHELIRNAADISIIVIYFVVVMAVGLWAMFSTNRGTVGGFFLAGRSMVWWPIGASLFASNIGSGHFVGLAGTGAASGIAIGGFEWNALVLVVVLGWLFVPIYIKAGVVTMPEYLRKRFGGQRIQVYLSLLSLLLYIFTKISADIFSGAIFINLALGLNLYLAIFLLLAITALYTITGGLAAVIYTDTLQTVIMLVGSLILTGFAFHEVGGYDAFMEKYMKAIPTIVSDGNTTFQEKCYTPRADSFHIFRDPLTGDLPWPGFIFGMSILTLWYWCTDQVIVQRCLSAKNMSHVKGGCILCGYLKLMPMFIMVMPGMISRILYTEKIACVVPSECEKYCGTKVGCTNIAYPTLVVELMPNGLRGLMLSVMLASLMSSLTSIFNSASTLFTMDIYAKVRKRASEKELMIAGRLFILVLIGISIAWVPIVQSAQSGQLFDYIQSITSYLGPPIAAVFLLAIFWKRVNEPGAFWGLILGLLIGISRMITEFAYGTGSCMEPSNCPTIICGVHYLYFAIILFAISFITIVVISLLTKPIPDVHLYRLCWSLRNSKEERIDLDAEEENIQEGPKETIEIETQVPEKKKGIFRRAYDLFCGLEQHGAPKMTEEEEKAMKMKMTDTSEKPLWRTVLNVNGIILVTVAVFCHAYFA
# [1] = PK satellite group of the in-vivo UGE assay (plasma by LC-MS/MS); details: male, Sprague Dawley, rat plasma, oral gavage; for Tmax: read-out: Mean PK Parameters (n = 2) tmax
# Procedure: Male Sprague Dawley rats (˜300 g) were singly housed in metabolic cages for urine collection. […] Rats (n=2 to 5/group) received vehicle or compound by oral gavage. Dosing solutions were 0.03 mg/mL, 0.3 mg/mL, 0.9 mg/mL, 3 mg/mL, 9 mg/mL and 18 mg/mL for the 0.1 mg/kg, 1 mg/kg, 3 mg/kg, 10 mg/kg, 30 mg/kg and 60 mg/kg doses respectively. Dosing volume was 1 mL/300 g of body weight for all doses. […] The vehicle was 20% v/v PEG400 and 24% v/v hydroxypropyl beta cyclodextrin; HPBCD. Following oral administration, urine was collected for 24 hours. Glucose concentration was measured in urine by UV absorbance spectrophotometry at 340 nm using a Roche Hitachi 917 spectrophotometer (Diamond Diagnostics, Holliston, Mass.). The total amount of glucose excreted in the urine was calculated as the product of urine concentration and urine volume using the formula below: urinary glucose excreted (mg)/200 g body weight=urinary glucose concentration (mg/dL)×urine volume (dL)×200/rat body weight (g). […] Blood (0.1 mL) was collected from the PK satellite group animals at 1, 2, 4, 7, 24 hours postdose to obtain plasma and analyzed by LC-MS/MS.
# human SGLT2 = target: T2, human SGLT2 (Homo sapiens, UniProt P31639); experiment: SGLT2 functional assay: inhibition of AMG uptake in CHO-FlpIn cells stably expressing human SGLT2; assay type: cell-based; details: individual runs (Run No.), read-out: hSGLT2 IC50
# T2 construct: expressed in transfected cells; host or cells: CHO-FlpIn (Invitrogen)
# T2 sequence (P31639 1-672): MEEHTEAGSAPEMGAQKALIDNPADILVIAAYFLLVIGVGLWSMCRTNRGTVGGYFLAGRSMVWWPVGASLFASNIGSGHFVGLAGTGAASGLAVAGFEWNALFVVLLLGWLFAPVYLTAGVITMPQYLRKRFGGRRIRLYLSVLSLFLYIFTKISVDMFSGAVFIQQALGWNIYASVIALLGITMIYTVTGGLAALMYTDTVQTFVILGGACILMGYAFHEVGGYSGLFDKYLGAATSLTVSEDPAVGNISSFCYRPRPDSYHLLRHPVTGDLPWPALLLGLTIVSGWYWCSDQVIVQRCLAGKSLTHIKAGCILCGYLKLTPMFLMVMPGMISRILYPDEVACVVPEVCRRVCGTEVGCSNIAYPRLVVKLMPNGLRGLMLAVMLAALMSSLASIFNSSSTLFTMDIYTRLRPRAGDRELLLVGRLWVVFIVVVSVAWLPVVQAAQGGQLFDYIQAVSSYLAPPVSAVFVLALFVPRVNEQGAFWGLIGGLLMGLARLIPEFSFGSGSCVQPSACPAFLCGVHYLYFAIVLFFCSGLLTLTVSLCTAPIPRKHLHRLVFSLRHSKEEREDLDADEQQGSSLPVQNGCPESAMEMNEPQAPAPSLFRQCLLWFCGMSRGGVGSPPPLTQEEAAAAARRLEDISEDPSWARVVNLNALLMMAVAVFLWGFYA
# Text: The SGLT2 functional assay was designed to detect the inhibition of methyl-alpha-D glucopyranoside (AMG—a non-metabolizable form of glucose) uptake via the SGLT2 transporter. The SGLT2 transporter recovers glucose from the proximal tubules of the kidney; its inhibition results in sugar wasted in the urine. The positive control compound, Phlorizin, is a known inhibitor of glucose uptake for SGLT2 and was used for comparing the high percent effect of SGLT2 inhibition of the test compounds.
# CHO-FlpIn (Invitrogen, Carlsbad, Calif.) cells stably expressing human SGLT2 (pcDNA5/FRT) were plated in Iso-TC 96 well plates (Perkin Elmer, Waltham, Mass.) at a density of 100,000 cells/well in 100 microL of growth media (1:1 F-12/DMEM media (Gibco, Carlsbad, Calif.), 10% FBS (Sigma, St. Louis Mo.), 1× Pen/Strep (Gibco, Carlsbad, Calif.), 600 microg/mL Hygromycin (Invitrogen, Carlsbad, Calif.)). Prior to treating with test compound, confluent cells were serum starved for 2 hours at 37° C. in 1:1 F-12/DMEM media, replacing with fresh F-12/DMEM media after 1 hour. […] Cell plates were then incubated for 3 hours at 37° C. for AMG uptake.
Structure (SMILES),IC50 (hSGLT1),AUC(0-t) ([1]; 10 mg/kg) [ng·h/mL],Cmax ([1]; 10 mg/kg) [ng/mL],Tmax ([1]; 10 mg/kg) [h],IC50 (human SGLT2),AUC(0-t) ([1]; 0.1 mg/kg) [ng·h/mL],Cmax ([1]; 0.1 mg/kg) [ng/mL],AUC(0-t) ([1]; 1 mg/kg) [ng·h/mL],Cmax ([1]; 1 mg/kg) [ng/mL],Tmax ([1]; 1 mg/kg) [h],AUC(0-t) ([1]; 3 mg/kg) [ng·h/mL],Cmax ([1]; 3 mg/kg) [ng/mL],Tmax ([1]; 3 mg/kg) [h],AUC(0-t) ([1]; 30 mg/kg) [ng·h/mL],Cmax ([1]; 30 mg/kg) [ng/mL],Tmax ([1]; 30 mg/kg) [h],AUC(0-t) ([1]; 60 mg/kg) [ng·h/mL],Cmax ([1]; 60 mg/kg) [ng/mL],Tmax ([1]; 60 mg/kg) [h]
"COc1ccc(Cc2cc([C@]34OC[C@](CO)(O3)[C@@H](O)[C@H](O)[C@H]4O)ccc2C)cc1 [Example 1A, (1S,2S,3S,4R,5S)-1-hydroxymethyl-5-[3-(4-methoxy-benzyl)-4-methyl-phenyl]-6,8-dioxa-bicyclo[3.2.1]octane-2,3,4-triol]",359 nM and 1080 nM and 454 nM and 327 nM and 562 nM and 262 nM,6630,1260,1,1.61 nM and 1.55 nM and 1.15 nM and 0.779 nM and 0.715 nM and 0.654 nM,,,,,,,,,,,,,,
"CCOc1ccc(Cc2cc([C@]34OC[C@](CO)(O3)[C@@H](O)[C@H](O)[C@H]4O)ccc2Cl)cc1 [Example 4A, (1S,2S,3S,4R,5S)-5-[4-chloro-3-(4-ethoxy-benzyl)-phenyl]-1-hydroxymethyl-6,8-dioxa-bicyclo[3.2.1]octane-2,3,4-triol]",1590 nM and 1010 nM and 1750 nM and > 1000 nM and 2090 nM and 1810 nM and 2860 nM and 2480 nM and 2840 nM,26400,3100,2.5,1.27 nM and 0.816 nM and 0.57 nM and 0.922 nM and 1.85 nM and 0.812 nM and 0.7 nM and 0.737 nM and 0.846 nM and 0.768 nM,188,43.4,2000,372,1,7080,1320,1,10700,10500,1,233000,25300,2
